From patent US7465754B1, “Method of potentiating chemotherapy and treating solid tumors” (Wyeth, priority 1999, dated 2008) come the findings set out here.

The test system of assay [1] is human non small-cell lung carcinoma (NSCLC) line H-157. As to the kind of experiment: H-157 NSCLC xenograft in nude mice, tumor growth. The format is in vivo. How it is done: The potentiating effect of bioresponse modifiers on chemotherapeutic agents was evaluated in an in vivo standard pharmacological test procedure in which a human non small cell type lung cancer (NSCLC) cell line was engrafted onto the flanks of immunodeficient nude mice. The following briefly describes the test procedure used and results obtained. [R-(R*,R*)]-N-[(R)-6-Carboxy-N^2-[[2-carboxy-1-methyl-2-[(1-oxoheptyl)amino]ethoxy]carbonyl]-L-lysyl]-alanine was used as a representative bioresponse modifier and paclitaxcel was used a representative chemotherapeutic agent.
Balb-c nu/nu female mice were obtained from Charles River Laboratories at 6-8 weeks of age and used experimentally at 8-10 weeks of age. The human non small-cell lung carcinoma (NSCLC) line H-157 was obtained from the American tissue culture collection (ATCC) (Bethesda, Md.). Cells were grown in RPMI medium with 10% fetal bovine serum.
Mice were injected subcutaneously with 7.5×10^6H-157 NSCLC tumor cells. Tumors were allowed to develop until they reached a size of 80-150 mg. Tumor size was determined using vernier calipers to measure length (l) and width (w). The tumor volume was estimated using the formula l×w^2/2. The volume in mm^3 can be converted to milligrams directly assuming unit density. Seven days after injection, mice were randomized (day 0) into groups of 10 with a mean tumor mass of 100 mg. Treatment groups received paclitaxcel (30 mg/kg) on day 0 and either vehicle or [R-(R*,R*)]-N-[(R)-6-Carboxy-N^2-[[2-carboxy-1-methyl-2-[(1-oxoheptyl)amino]ethoxy]carbonyl]-L-lysyl]-alanine (100 μg/kg) on days 1 and 8.

The subject of assay [2] is tumor cell growth in vitro. As to the kind of experiment: Tumor cell growth in vitro / cell culture. The format is cell-based.

Structures are written as SMILES.

As to `CC(=O)O[C@H]1C(=O)[C@@]2(C)[C@H]([C@H](OC(=O)c3ccccc3)[C@]3(O)C[C@H](OC(=O)[C@H](O)[C@@H](NC(=O)c4ccccc4)c4ccccc4)C(C)=C1C3(C)C)[C@]1(OC(C)=O)CO[C@@H]1C[C@@H]2O` [Paclitaxcel, paclitaxcel], the “% Suppression (Day 7)” value in assay [1] (Day 7, versus untreated control, paclitaxcel 30 mg/kg day 0, vehicle or CI 100 μg/kg days 1 and 8) is given as 30%. In addition, the “Tumor size (mg) Day 7” value in assay [1] (Day 7, paclitaxcel 30 mg/kg day 0, vehicle or CI 100 μg/kg days 1 and 8, mean ± standard deviation, 5 evaluations, 10 mice/group) is on record as “^c289 ± 108 mg”. Further, in assay [1] (Day 14, versus untreated control, paclitaxcel 30 mg/kg day 0, vehicle or CI 100 μg/kg days 1 and 8), the “% Suppression (Day 14)” value is listed as 30%. Also, the “Tumor size (mg) Day 14” value in assay [1] (Day 14, paclitaxcel 30 mg/kg day 0, vehicle or CI 100 μg/kg days 1 and 8, mean ± standard deviation, 5 evaluations, 10 mice/group) is reported as 866 ± 348 mg. Besides, the “tumor cell growth (in words)” value in assay [1] (day 7, Student's t test) was “inhibited tumor cell growth”. The “tumor growth (in words)” value in assay [1] (day 14) was “not significantly suppressed versus control”.

In the case of `CCCCCCC(=O)N[C@@H](C(=O)O)[C@@H](C)OC(=O)N[C@@H](CCC[C@@H](N)C(=O)O)C(=O)NC(C)C(=O)O` (relative stereo) [CI, [R-(R*,R*)]-N-[(R)-6-carboxy-N^2-[[2-carboxy-1-methyl-2-[(1-oxoheptyl)amino]ethoxy]carbonyl]-L-lysyl]-alanine], in assay [2] (cell culture, with paclitaxcel), the “potentiation of the growth inhibitory effect of paclitaxcel in cell culture” value is reported as “nor does it potentiate the growth inhibitory effect of paclitaxcel in cell culture”. Besides, the “direct inhibition of tumor cell growth in vitro” value in assay [2] (in vitro) is on record as “does not directly inhibit tumor cell growth in vitro”.
